Test [1] deals with IL-13 dependent proliferation of TF-1.8 cells. The test can be described thus: IL-13 dependent proliferation of TF-1.8 cells (luciferase). As to conditions: 10 μg/ml, titration of IL-13 (FIG. 2A). It counts as cell-based, human. An excerpt:
Heparin inhibited the proliferation of a human IL-13 responsive cell line. This occurs at very low doses and is not due to a toxic effect of the heparin because other, similarly sulfated polysaccharides, at the same concentrations of IL-13 and polysaccharide have no effect. These experiments utilize the TF-1.8 cells. TF-1.8 cells are a subclone of the TF-1 cells that have been selected for growth in IL-4, and because IL-4 and IL-13 share a receptor these cells are also responsive to IL-13. TF-1 cells were originally established from a bone marrow sample from a person with severe pancytopenia. […]
TF-1.8 cells have been transfected with the firefly luciferase gene contained in the expression vector, pPGK-puromycin-luciferase (Coombe et al, J. Immunol. Methods 215:145-150, 1998). […] The cells are counted with a Coulter Z2 Particle Counter and Size Analyzer (Coulter Electronics, England) and routinely 2.5×10^4 cells are added to microplate wells that contain either no IL-13 (negative control) or various dilutions of IL-13. When the effect of PPS, or other sulfated polysaccharides is to be measured, the wells also contain various concentrations of these molecules. […]
PPS inhibited the proliferation of a human IL-13 responsive cell line. […] When the effect of PPS is to be measured, the wells also contain various concentrations of this molecule. […]

For a further test, the system named is TF-1 cells. Briefly: TF-1 cell proliferation induced by IL-13 proteins. It is filed as cell-based, human. The protocol:
The ability of sulfated xylans to inhibit IL-13 mediated cell proliferation is size dependent. These experiments utilized the TF-1 cell line from which the TF1.8 cells were derived. The assay is performed as described above with the TF1.8 cells the differences being the concentration of IL-13 required for cell growth and the fact that cell number is determined using a dye. Briefly, proliferation assays are carried out in 96-well microplates suitable for such assays. Cells are washed to remove any cytokine in the growth medium and then resuspended in RPMI/5% w/v FCS and routinely 2.5×10^4 cells are added to microplate wells that contain either no IL-13 (negative control) or various dilutions of IL-13. When the effect of the different sized sulfated xylans was measured, the wells also contained various concentrations of these molecules and the IL-13 concentration was held constant at 2.5 ng/ml. The cells proliferated for 48 hours, after which the number of cells present was quantified by staining with […] of the AQUEOUS ONE dye for 3 hours and then absorbance was read at 490 nm.
The IL-13R111 wild type and the IL-13Q111 variant are shown for comparison.
Details of the assay are given in Example 6.

The target of another test is T1, IL-13 Rα2 (Homo sapiens, UniProt Q14627).
T1 sequence (Q14627 27-380): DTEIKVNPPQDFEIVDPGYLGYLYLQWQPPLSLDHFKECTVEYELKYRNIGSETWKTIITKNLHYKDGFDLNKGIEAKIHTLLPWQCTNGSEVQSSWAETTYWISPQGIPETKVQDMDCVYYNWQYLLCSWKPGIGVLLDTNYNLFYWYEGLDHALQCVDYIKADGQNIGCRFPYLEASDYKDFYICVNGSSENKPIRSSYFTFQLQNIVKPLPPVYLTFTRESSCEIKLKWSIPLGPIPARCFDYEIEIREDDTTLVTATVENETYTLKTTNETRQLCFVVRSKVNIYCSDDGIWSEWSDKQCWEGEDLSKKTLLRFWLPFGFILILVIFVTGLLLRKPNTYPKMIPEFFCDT
The settings on record: high affinity; cited from earlier work.

Test [2] can be described thus: BIACORE binding of IL-13 proteins to immobilized heparin. As to conditions: surface plasmon resonance. An excerpt: The optical phenomenon of surface plasmon resonance is used to monitor physical interactions between molecules. Passing a solution of a potential protein ligand (e.g. IL-13) over a sensor surface to which a target (e.g. heparin) is coupled monitors the real-time binding of protein ligands to the immobilized target. Detection is achieved by measuring refractive index changes very close to the sensor surface. When the refractive index is altered, the angle at which plasmon resonance occurs changes and this change directly correlates with the amount of protein interacting with the surface. A BIACORE 2000 sensor chip is conveniently used. It is very sensitive and its microfiuidics ensures that only small amounts of material are required.
Biotinylated heparin is immobilized on the biosensor chip. […] Solutions containing potential protein ligands of interest are injected over the sensor chip surface, and the binding is measured in real time (Femig, In: Proteoglycan protocols, Ed. R. V. Iozzo, Humana Press, Totowa, N.J., USA, 2001). Bacterially expressed recombinant human IL-13 (rhIL-13) readily binds to heparin immobilized by this method. […]
Site directed mutagenesis was performed on IL-13. […] Mutant IL-13 proteins were examined for their ability to bind heparin immobilized on a biosensor chip and binding was assessed using a BIACORE 2000 sensor chip.
A general note: In SPR one partner is held on a chip, and binding of the other changes the refractive index at the surface.

Another test deals with T2, IL-13Rα1 (Homo sapiens, UniProt P78552).
T2 sequence (P78552 22-427): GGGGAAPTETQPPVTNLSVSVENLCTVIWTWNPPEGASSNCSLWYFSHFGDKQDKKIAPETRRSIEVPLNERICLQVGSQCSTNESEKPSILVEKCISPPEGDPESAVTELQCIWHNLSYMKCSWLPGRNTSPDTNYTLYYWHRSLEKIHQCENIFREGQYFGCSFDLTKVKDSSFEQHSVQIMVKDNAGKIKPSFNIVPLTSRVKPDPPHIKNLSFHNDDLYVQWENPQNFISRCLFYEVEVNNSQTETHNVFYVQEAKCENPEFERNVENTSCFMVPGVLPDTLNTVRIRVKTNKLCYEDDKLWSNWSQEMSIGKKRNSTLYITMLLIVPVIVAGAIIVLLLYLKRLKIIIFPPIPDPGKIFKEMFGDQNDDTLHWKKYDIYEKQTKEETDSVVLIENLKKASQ
As to conditions: low-moderate affinity; read-out: affinity of IL-13Rα1 by itself for IL-13; cited from earlier work.

For `O=S(=O)(O)OC[C@H]1O[C@@](COS(=O)(=O)O)(O[C@H]2O[C@H](COS(=O)(=O)O)[C@@H](OS(=O)(=O)O)[C@H](OS(=O)(=O)O)[C@H]2OS(=O)(=O)O)[C@@H](OS(=O)(=O)O)[C@@H]1OS(=O)(=O)O` [sucrose octasulfate], the “inhibition of IL-13 mediated cell proliferation” value in test [1] is “very little inhibitory activity”.
Take “IL-13 WT (R111): wild type human IL-13 with arginine in the 111 position; 1IJZ.pdb monomer in docking”: the “Concentration of IL-13 required for 50% TF-1 cell proliferation ED50 ave” value in the test with TF-1 cells is 1.2 ng/mL. Moreover, the “cell proliferative activity in the TF-1 cell assay” value in the test on TF-1 cells (FIG. 7A) was “comparable”. For the same molecule, the values for the Kd in the test with IL-13 Rα2 and with IL-13Rα1 were 0.5 to 1.2 nM and 2 to 10 nM, respectively. Besides, the “binding to heparin immobilized on BIACORE sensor chip” value in test [2] (listed as rhIL-13) was “readily binds”; in test [2] (listed as wild type IL-13), “binds heparin more strongly”.
